Source: patent publication US6737383B1, “Herbicidal oxadiazolidines” (priority 1999, dated 2004)

How the values were obtained:
wild oat [1] = assay: Test E wild oat; format: in vivo, Avena fatua; conditions: Preemergence
bermuda-grass = assay: Test D bermudagrass; format: in vivo, Cynodon dactylon; conditions: Preemergence, 0 to 100 scale
Procedure, shortened: (§1)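 Herbicide screen in the greenhouse. A non-phytotoxic solvent mixture with surfactant carried the test chemical; in pre-emergence tests it went onto the soil of pots seeded no more than a day earlier. Injury was scored by eye 14 to 21 days after application, 0 to 100.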

bedstraw = assay: Test B pre/postemergence bedstraw; format: in vivo, Galium aparine
Procedure, shortened: (§2)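 Response is a visual 0-to-10 score relative to untreated plants, where 0 means no effect and 10 means complete control, taken twelve to sixteen days after application. Treatments went onto soil at planting and onto foliage of 1- to 4-leaf plants, using a surfactant-containing non-phytotoxic solvent.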

wild oat [2] = assay: Test B pre/postemergence wild oat; format: in vivo, Avena fatua
Procedure, shortened: as §2

morningglory = assay: Test B pre/postemergence morningglory; format: in vivo, Ipomoea hederacea
Procedure, shortened: as §2

green foxtail = assay: Test E green foxtail; format: in vivo, Setaria viridis; conditions: Preemergence
blackgrass = assay: Test E blackgrass; format: in vivo, Alopecurus myosuroides; conditions: Preemergence
winter wheat [3] = assay: Test E winter wheat; format: in vivo, Triticum aestivum; conditions: Postemergence; for Plant response rating, Wheat (winter): 0 to 100 scale
Procedure, shortened: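 For postemergence, application to 1- to 4-leaf plants growing in a 60:40 sandy loam–potting mix substrate. Formulation: non-phytotoxic solvent mixture plus surfactant. Untreated controls served as the reference for the visual rating after ~21–28 days.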

Alexandergrass = assay: Test D Alexandergrass; format: in vivo, Brachiaria plantaginea; conditions: Preemergence, 0 to 100 scale
Procedure, shortened: as §1

Italian ryegrass = assay: Test E Italian ryegrass; format: in vivo, Lolium multiflorum; conditions: Preemergence
velvetleaf = assay: Test B pre/postemergence velvetleaf; format: in vivo, Abutilon theophrasti
Procedure, shortened: as §2

winter barley = assay: Test E winter barley; format: in vivo, Hordeum vulgare; conditions: Preemergence
winter wheat [4] = assay: Test E winter wheat; format: in vivo, Triticum aestivum; conditions: Preemergence
[5] = Rate 31 g/ha, 0 to 100 scale, 0 no effect, 100 complete control
[6] = Rate 62 g/ha, 0 to 100 scale, 0 no effect, 100 complete control
[7] = Rate 125 g/ha, 0 to 100 scale (0 no effect, 100 complete control)
[8] = Rate 500 g/ha, 0 to 100 scale where 0 is no effect and 100 is complete control
[9] = Rate 16 g/ha, 0 no injury, 100 complete control
[10] = Rate 32 g/ha, 0 no injury, 100 complete control
[11] = Rate 64 g/ha, 0 no injury, 100 complete control
[12] = Rate 125 g/ha, 0 no injury, 100 complete control
[13] = Preemergence, Rate 62 g/ha, scale of 0 to 10 where 0 is no effect and 10 is complete control
[14] = Preemergence, Rate 250 g/ha, scale of 0 to 10 where 0 is no effect and 10 is complete control
[15] = Preemergence, Rate 500 g/ha, scale of 0 to 10 where 0 is no effect and 10 is complete control
[16] = Rate 62 g/ha, Postemergence, scale of 0 to 10 where 0 is no effect and 10 is complete control
[17] = Rate 125 g/ha, Preemergence, scale of 0 to 10 where 0 is no effect and 10 is complete control
[18] = Rate 500 g/ha, Postemergence, scale 0 to 10, 0 no effect, 10 complete control

CC(C)N(C(=O)n1oc(=O)n(C2CC2)c1=O)c1ccc(F)cc1 [Compound 242]
6: Velvetleaf plant response rating (velvetleaf; [13])
100: Plant response rating, Wild oat (wild oat [1]; [8]) | Plant response rating, Bermudagrass (bermuda-grass; Rate 250 g/ha) | Plant response rating, Bermudagrass (bermuda-grass; Rate 500 g/ha) | Plant response rating, Green foxtail (green foxtail; [8]) | Blackgrass plant response rating (0 to 100 scale) (blackgrass; Rate 250 g/ha) | Plant response rating, Alexandergrass (Alexandergrass; [11]) | Plant response rating, Alexandergrass (Alexandergrass; Rate 250 g/ha) | Plant response rating, Alexandergrass (Alexandergrass; Rate 500 g/ha) | Plant response rating, I. Ryegrass (Italian ryegrass; [8])
98: Wild oat plant response rating (0 to 100 scale) (wild oat [1]; Rate 250 g/ha) | Plant response rating, Bermudagrass (bermuda-grass; [12]) | Green foxtail plant response rating (0 to 100 scale) (green foxtail; Rate 250 g/ha) | Plant response rating, Blackgrass (blackgrass; [8]) | Plant response rating, Alexandergrass (Alexandergrass; [12]) | I. Ryegrass plant response rating (0 to 100 scale) (Italian ryegrass; Rate 250 g/ha)
9: Bedstraw plant response rating (bedstraw; [14]) | Wild oats plant response rating (wild oat [2]; [14]) | Wild oats plant response rating (wild oat [2]; [17])
60: Plant response rating, Wild oat (wild oat [1]; [6]) | Plant response rating, Wild oat (wild oat [1]; [7]) | Barley (winter) plant response rating (0 to 100 scale) (winter barley; Rate 250 g/ha)
7: Bedstraw plant response rating (bedstraw; [17]) | Plant response rating (0 to 10; 0 is no effect, 10 is complete control), Bedstraw (bedstraw; Rate 250 g/ha, Postemergence) | Wild oats plant response rating (wild oat [2]; [13]) | Plant response rating (0 to 10; 0 is no effect, 10 is complete control), Morningglory (morningglory; Rate 250 g/ha, Postemergence) | Velvetleaf plant response rating (velvetleaf; [18])
85: Plant response rating, Bermudagrass (bermuda-grass; [10]) | Plant response rating, Bermudagrass (bermuda-grass; [11]) | Plant response rating, Alexandergrass (Alexandergrass; [10]) | Plant response rating, Barley (winter) (winter barley; [8])
40: Plant response rating, Barley (winter) (winter barley; [7]) | Plant response rating, Wheat (winter) (winter wheat [4]; [6])
90: Plant response rating, Wheat (winter) (winter wheat [3]; Rate 500 g/ha, 0 is no effect, 100 is complete control)
8: Bedstraw plant response rating (bedstraw; [18]) | Wild oats plant response rating (wild oat [2]; [18]) | Morningglory plant response rating (morningglory; [18]) | Velvetleaf plant response rating (velvetleaf; [14]) | Velvetleaf plant response rating (velvetleaf; [17])
65: Plant response rating, Wheat (winter) (winter wheat [3]; Rate 62 g/ha) | Plant response rating, Alexandergrass (Alexandergrass; [9]) | Plant response rating, I. Ryegrass (Italian ryegrass; [5]) | Plant response rating, Wheat (winter) (winter wheat [4]; [7])
80: Plant response rating, Bermudagrass (bermuda-grass; [9])
0: Bedstraw plant response rating (bedstraw; [13]) | Wild oats plant response rating (wild oat [2]; [16]) | Morningglory plant response rating (morningglory; [16])
2: Bedstraw plant response rating (bedstraw; [16]) | Morningglory plant response rating (morningglory; [13]) | Morningglory plant response rating (morningglory; [17])
10: Plant response rating, Bedstraw (bedstraw; [15]) | Plant response rating, Wild oats (wild oat [2]; [15]) | Plant response rating, Morningglory (morningglory; [15]) | Plant response rating, Wheat (winter) (winter wheat [3]; Rate 125 g/ha, 0 is no effect, 100 is complete control) | Wheat (winter) plant response rating (winter wheat [3]; Rate 250 g/ha, 0 to 100 scale where 0 is no effect and 100 is complete control) | Plant response rating, Velvetleaf (velvetleaf; [15])
5: Bedstraw plant response rating (bedstraw; Rate 125 g/ha, Postemergence, scale 0 to 10) | Morningglory plant response rating (morningglory; [14])
95: Plant response rating, Blackgrass (blackgrass; [7]) | Plant response rating, I. Ryegrass (Italian ryegrass; [7]) | Plant response rating, Wheat (winter) (winter wheat [4]; [8])
70: Plant response rating, Green foxtail (green foxtail; [7]) | Plant response rating, Blackgrass (blackgrass; [6]) | Plant response rating, I. Ryegrass (Italian ryegrass; [6])
50: Plant response rating, Wild oat (wild oat [1]; [5]) | Plant response rating, Green foxtail (green foxtail; [5])
3: Velvetleaf plant response rating (velvetleaf; [16])
30: Plant response rating, Barley (winter) (winter barley; [5]) | Plant response rating, Barley (winter) (winter barley; [6]) | Plant response rating, Wheat (winter) (winter wheat [4]; [5])
55: Plant response rating, Blackgrass (blackgrass; [5]) | Plant response rating, Wheat (winter) (winter wheat [3]; Rate 31 g/ha, 0 no effect, 100 complete control) | Wheat (winter) plant response rating (0 to 100 scale) (winter wheat [4]; Rate 250 g/ha)
